Measurements: the supplement of paper PMC10627819

Columns and labels:
[1] = tested on: S. aureus DSM 20231; experiment: fitness (endpoint OD595 vs no drug) (fraction); higher = more growth
How it was run: (§1)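 Volumes were 30 µl per well, or 55 µl for S. pneumoniae, in 384-well plates inoculated at OD595 0.01. Media were TSB, LB Lennox or CY at 37 °C, and OD595 was read every 30 min for 14 h with first-reading background subtraction. Fitness is the ratio of optical density at stationary-phase entry to the robust mean of no-drug controls. That ratio is capped at 1.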

[2] = tested on: S. pneumoniae D39V; experiment: as above
How it was run: as §1

[3] = tested on: B. subtilis 168; experiment: Bliss interaction score (quartile over a dose matrix) (fitness difference); higher = more antagonism (negative = synergy)
How it was run: (§2)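 Fitness here means normalised growth, inferred for single drugs from the combination data. Growth was OD595 at entry into stationary phase, divided by the plate's robust no-drug mean and capped at 1. The Bliss score is observed minus expected fitness, with the expectation being the product, and its quartiles span technical, biological and donor/recipient replicates.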

[4] = tested on: S. aureus DSM 20231; experiment: as above
How it was run: as §2

[5] = tested on: S. aureus Newman; experiment: as above
How it was run: as §2

[6] = tested on: S. pneumoniae D39V; experiment: as above
How it was run: as §2

[7] = tested on: S. aureus Newman; experiment: fitness (endpoint OD595 vs no drug) (fraction); higher = more growth; details: one replicate
How it was run: as §1

[8] = tested on: B. subtilis 168; experiment: as above
How it was run: as §1
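For Bliss interaction score (quartile over a dose matrix) in this document: first quartile when negative (synergy) and third quartile when positive (antagonism).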

CO/N=C(\C(=O)N[C@@H]1C(=O)N2C(C(=O)[O-])=C(C[N+]3(C)CCCC3)CS[C@H]12)c1csc(N)n1 [Cefepime] + CC(=O)NC[C@H]1CN(c2ccc(N3CCOCC3)c(F)c2)C(=O)O1 [Linezolid]
Details | fitness
[1], first compound 0.125 µg/mL, partner 0.125 µg/mL | 0.843
[1], first compound 0.125 µg/mL, partner 0.25 µg/mL | 0.625
[1], first compound 0.125 µg/mL, partner 0.5 µg/mL | 0.287
[1], first compound 0.25 µg/mL, partner 0.125 µg/mL | 0.956
[1], first compound 0.25 µg/mL, partner 0.25 µg/mL | 0.655
[1], first compound 0.25 µg/mL, partner 0.5 µg/mL | 0.375
[1], first compound 0.5 µg/mL, partner 0.125 µg/mL | 0.903
[1], first compound 0.5 µg/mL, partner 0.25 µg/mL | 0.669
[1], first compound 0.5 µg/mL, partner 0.5 µg/mL | 0.322
[2], first compound 0.007 µg/mL, partner 0.2 µg/mL | 0.827
[2], first compound 0.007 µg/mL, partner 0.4 µg/mL | 0.567
[2], first compound 0.007 µg/mL, partner 0.8 µg/mL | 0.253
[2], first compound 0.0078 µg/mL, partner 0.105 µg/mL | 0.934
[2], first compound 0.0078 µg/mL, partner 0.21 µg/mL | 0.825
[2], first compound 0.0078 µg/mL, partner 0.42 µg/mL | 0.692
[2], first compound 0.014 µg/mL, partner 0.2 µg/mL | 0.797
[2], first compound 0.014 µg/mL, partner 0.4 µg/mL | 0.573
[2], first compound 0.014 µg/mL, partner 0.8 µg/mL | 0.259
[2], first compound 0.0155 µg/mL, partner 0.105 µg/mL | 0.912
[2], first compound 0.0155 µg/mL, partner 0.21 µg/mL | 0.796
[2], first compound 0.0155 µg/mL, partner 0.42 µg/mL | 0.608
[2], first compound 0.028 µg/mL, partner 0.2 µg/mL | 0.751
[2], first compound 0.028 µg/mL, partner 0.4 µg/mL | 0.512
[2], first compound 0.028 µg/mL, partner 0.8 µg/mL | 0.244
[2], first compound 0.031 µg/mL, partner 0.105 µg/mL | 0.645
[2], first compound 0.031 µg/mL, partner 0.21 µg/mL | 0.504
[2], first compound 0.031 µg/mL, partner 0.42 µg/mL | 0.258

[1], partner 1 µg/mL, one replicate
Details | fitness
first compound 0.125 µg/mL | 0.0467
first compound 0.25 µg/mL | 0.0593
first compound 0.5 µg/mL | 0.052

Details | Bliss interaction score
[3] | 0.0847
[4] | 0.11
[5] | 0.0424
[6] | 0.165

CC1(C)S[C@@H]2[C@H](NC(=O)[C@H](N)c3ccc(O)cc3)C(=O)N2[C@H]1C(=O)O [Amoxicillin] + CO/N=C(\C(=O)N[C@@H]1C(=O)N2C(C(=O)O)=C(COC(N)=O)CS[C@H]12)c1ccco1 [Cefuroxime]
fitness, [7]
Details | first compound 0.0625 µg/mL | first compound 0.125 µg/mL | first compound 0.25 µg/mL
partner 0.04875 µg/mL | 0.944 | 0.932 | 0.841
partner 0.0975 µg/mL | 0.895 | 0.804 | 0.747
partner 0.195 µg/mL | 0.895 | 0.805 | 0.772

Details | Bliss interaction score
[3] | 0.0792
[4] | -0.127
[5] | 0.097
[6] | 0.0491

CC1(C)S[C@@H]2[C@H](NC(=O)[C@H](N)c3ccc(O)cc3)C(=O)N2[C@H]1C(=O)O [Amoxicillin] + CCC[C@@H]1C[C@@H](C(=O)N[C@@H]([C@H]2O[C@H](SC)[C@H](O)[C@@H](O)[C@H]2O)[C@@H](C)O)N(C)C1 [Lincomycin]
fitness
Details | partner 0.1 µg/mL | partner 0.2 µg/mL | partner 0.215 µg/mL | partner 0.4 µg/mL | partner 0.43 µg/mL | partner 0.8 µg/mL | partner 0.86 µg/mL
[1], first compound 0.0625 µg/mL | 0.624 | 0.492 | – | 0.213 | – | – | –
[1], first compound 0.125 µg/mL | – | 0.358 | – | 0.129 | – | – | –
[1], first compound 0.25 µg/mL | 0.0334 | 0.0486 | – | 0.064 | – | – | –
[1], first compound 0.5 µg/mL | 0.0005 | 0.0261 | – | 0.0105 | – | – | –
[2], first compound 0.0008 µg/mL | – | – | 0.838 | – | 0.739 | – | 0.409
[2], first compound 0.0015 µg/mL | – | 0.847 | 0.878 | 0.54 | 0.744 | 0.312 | 0.437
[2], first compound 0.003 µg/mL | – | 0.816 | 0.852 | 0.554 | 0.744 | 0.337 | 0.477

fitness, [2], one replicate
Details | partner 0.2 µg/mL | partner 0.4 µg/mL | partner 0.8 µg/mL
first compound 0.0008 µg/mL | 0.878 | 0.489 | 0.393
first compound 0.006 µg/mL | 0.484 | 0.216 | 0.143

Details | Bliss interaction score
[3] | -0.0381
[4] | -0.0436
[5] | 0.117
[6] | 0.227

CCCCCCCCCC(=O)N[C@@H](Cc1c[nH]c2ccccc12)C(=O)N[C@H](CC(N)=O)C(=O)N[C@@H](CC(=O)O)C(=O)N[C@@H]1C(=O)NCC(=O)N[C@@H](CCCN)C(=O)N[C@@H](CC(=O)O)C(=O)N[C@H](C)C(=O)N[C@@H](CC(=O)O)C(=O)NCC(=O)N[C@H](CO)C(=O)N[C@@H]([C@H](C)CC(=O)O)C(=O)N[C@@H](CC(=O)c2ccccc2N)C(=O)O[C@@H]1C [Daptomycin] + CC(=O)NC[C@H]1CN(c2ccc(N3CCOCC3)c(F)c2)C(=O)O1 [Linezolid]
one replicate
Details | fitness
[1], first compound 0.125 µg/mL, partner 0.125 µg/mL | 0.729
[1], first compound 0.125 µg/mL, partner 1 µg/mL | 0.0431
[1], first compound 0.25 µg/mL, partner 0.125 µg/mL | 0.869
[1], first compound 0.25 µg/mL, partner 1 µg/mL | 0.0221
[1], first compound 0.5 µg/mL, partner 1 µg/mL | 0.0214
[8], first compound 0.125 µg/mL, partner 0.0625 µg/mL | 0.944
[8], first compound 0.25 µg/mL, partner 0.0625 µg/mL | 0.932
[8], first compound 0.5 µg/mL, partner 0.0625 µg/mL | 0.802
[8], first compound 1 µg/mL, partner 0.125 µg/mL | 0.6
[8], first compound 1 µg/mL, partner 0.25 µg/mL | 0.279
[8], first compound 1 µg/mL, partner 0.5 µg/mL | 0.0175

fitness
Details | first compound 0.125 µg/mL | first compound 0.25 µg/mL | first compound 0.5 µg/mL | first compound 1 µg/mL | first compound 2 µg/mL | first compound 4 µg/mL
[1], partner 0.125 µg/mL | – | – | 0.844 | 0.928 | 0.951 | –
[1], partner 0.25 µg/mL | 0.629 | 0.595 | 0.651 | 0.823 | 0.775 | –
[1], partner 0.5 µg/mL | 0.19 | 0.177 | 0.257 | 0.319 | 0.335 | –
[2], partner 0.105 µg/mL | – | – | – | 0.741 | 0.786 | 0.77
[2], partner 0.2 µg/mL | – | – | – | 0.409 | 0.413 | 0.412
[2], partner 0.21 µg/mL | – | – | – | 0.651 | 0.689 | 0.689
[2], partner 0.4 µg/mL | – | – | – | 0.207 | 0.22 | 0.205
[2], partner 0.42 µg/mL | – | – | – | 0.476 | 0.447 | 0.554
[2], partner 0.8 µg/mL | – | – | – | 0.0731 | 0.0931 | 0.0732
[8], partner 0.125 µg/mL | 0.604 | 0.605 | 0.508 | – | – | –
[8], partner 0.25 µg/mL | 0.0809 | – | – | – | – | –
[8], partner 0.5 µg/mL | 0.0486 | 0.0567 | 0.0348 | – | – | –

Details | Bliss interaction score
[3] | 0.0563
[4] | 0.0745
[5] | 0.0604
[6] | -0.141
